Measured values published in patent publication US20250282794A1 (CURADEV PHARMA LTD, priority 2022, published 2025).

What follows are compounds tested against recombinant full length HPK-1 enzyme (Homo sapiens (Human), UniProt Q92918) (assay: HPK-1 biochemical enzyme assay (ADP-Glo kinase inhibition)). Settings: recombinant full length HPK-1 6.8 nM, 10 μM ATP, 12.5 μM MBP, 30 mins at 25° C.
Chain of recombinant full length HPK-1 enzyme (Q92918 whole entry, species assumed): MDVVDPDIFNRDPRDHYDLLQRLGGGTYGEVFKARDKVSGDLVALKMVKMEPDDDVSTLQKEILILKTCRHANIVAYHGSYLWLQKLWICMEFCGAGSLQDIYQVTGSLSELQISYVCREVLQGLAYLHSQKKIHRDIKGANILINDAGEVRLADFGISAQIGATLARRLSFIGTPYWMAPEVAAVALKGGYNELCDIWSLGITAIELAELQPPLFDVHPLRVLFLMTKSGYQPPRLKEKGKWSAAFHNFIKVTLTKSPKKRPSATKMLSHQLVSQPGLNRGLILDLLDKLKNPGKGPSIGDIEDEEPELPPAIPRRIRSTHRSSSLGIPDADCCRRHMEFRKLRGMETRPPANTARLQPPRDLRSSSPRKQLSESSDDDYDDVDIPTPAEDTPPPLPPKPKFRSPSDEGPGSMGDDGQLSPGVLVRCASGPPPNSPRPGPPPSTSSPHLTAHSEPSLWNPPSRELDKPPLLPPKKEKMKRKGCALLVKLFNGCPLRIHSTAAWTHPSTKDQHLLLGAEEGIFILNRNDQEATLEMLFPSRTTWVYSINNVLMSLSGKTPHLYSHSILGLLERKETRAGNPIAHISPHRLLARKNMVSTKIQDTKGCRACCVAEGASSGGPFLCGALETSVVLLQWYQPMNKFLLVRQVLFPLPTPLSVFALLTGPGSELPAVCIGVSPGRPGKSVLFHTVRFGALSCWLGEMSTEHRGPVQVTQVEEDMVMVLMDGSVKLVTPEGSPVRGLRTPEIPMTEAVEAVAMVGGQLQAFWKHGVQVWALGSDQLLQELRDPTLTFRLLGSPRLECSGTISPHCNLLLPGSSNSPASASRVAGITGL
How it was run: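 Recombinant full-length human HPK-1 (6.8 nM) incubated 30 min at 25° C. with 10 μM ATP and 12.5 μM swine MBP in 40 mM Tris pH 7.4, 20 mM MgCl2, 50 μM DTT, 0.1 mg/mL BSA. ADP measured by ADP-Glo; IC50 from 10 concentrations, normalized to no-enzyme and vehicle controls.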
With `Cc1c(Nc2cc[nH]c(=O)c2C(=O)Nc2ccc(N3CCN(C)CC3)cc2)cnc2c1NCC(C)O2` (centres unmarked) [Example 165, 4-((3,8-dimethyl-2,3-dihydro-1H-pyrido[2,3-b][1,4]oxazin-7-yl)amino)-N-(4-(4-methylpiperazin-1-yl)phenyl)-2-oxo-1,2-dihydropyridine-3-carboxamide] the IC50 was at most 10 nM. `Cc1c(Nc2cc[nH]c(=O)c2C(=O)Nc2ccc(N3CCN(c4cnn(C)c4)CC3)cc2)cnc2c1NCCO2` [Example 410, N-(4-(4-(1-methyl-1H-pyrazol-4-yl)piperazin-1-yl)phenyl)-4-((8-methyl-2,3-dihydro-1H-pyrido[2,3-b][1,4]oxazin-7-yl)amino)-2-oxo-1,2-dihydropyridine-3-carboxamide] showed an IC50 of 10 to 100 nM. Compound `CO[C@H](C)C(=O)N1CCN(c2ccc(NC(=O)c3c(Nc4cnc5c(c4C)NCCO5)cc[nH]c3=O)cc2)CC1` [Example 353, (R)-N-(4-(4-(2-methoxypropanoyl)piperazin-1-yl)phenyl)-4-((8-methyl-2,3-dihydro-1H-pyrido[2,3-b][1,4]oxazin-7-yl)amino)-2-oxo-1,2-dihydropyridine-3-carboxamide] has an IC50 of 10 to 100 nM. `Cc1c(Nc2cc[nH]c(=O)c2C(=O)Nc2ccc(N3CCN4C(=O)CCCC4C3)cc2)cnc2c1NCCO2` (centres unmarked) [Example 374, 4-((8-methyl-2,3-dihydro-1H-pyrido[2,3-b][1,4]oxazin-7-yl)amino)-2-oxo-N-(4-(6-oxooctahydro-2H-pyrido[1,2-a]pyrazin-2-yl)phenyl)-1,2-dihydropyridine-3-carboxamide] showed an IC50 of 10 to 100 nM. For `Cc1c(Nc2cc[nH]c(=O)c2C(=O)Nc2cnn(C3CCN(C)CC3)c2)cnc2c1NCC(C)O2` (centres unmarked) [Example 192, 4-((3,8-dimethyl-2,3-dihydro-1H-pyrido[2,3-b][1,4]oxazin-7-yl)amino)-N-(1-(1-methylpiperidin-4-yl)-1H-pyrazol-4-yl)-2-oxo-1,2-dihydropyridine-3-carboxamide], the IC50 was 10 to 100 nM. `Cc1c(Nc2cc[nH]c(=O)c2C(=O)Nc2ccc(N3CCN(C)CC3)c(CCO)c2)cnc2c1NCCO2` [Example 394, N-(3-(2-hydroxyethyl)-4-(4-methylpiperazin-1-yl)phenyl)-4-((8-methyl-2,3-dihydro-1H-pyrido[2,3-b][1,4]oxazin-7-yl)amino)-2-oxo-1,2-dihydropyridine-3-carboxamide] showed an IC50 of 10 to 100 nM. In the case of `CCOc1cc(NC(=O)c2c(Nc3cnc4c(c3C)NCCO4)cc[nH]c2=O)ccc1N1CCN(C2CC2)CC1` [Example 401, N-(4-(4-cyclopropylpiperazin-1-yl)-3-ethoxyphenyl)-4-((8-methyl-2,3-dihydro-1H-pyrido[2,3-b][1,4]oxazin-7-yl)amino)-2-oxo-1,2-dihydropyridine-3-carboxamide], the IC50 is reported as 10 to 100 nM. In the case of `Cc1c(Nc2cc[nH]c(=O)c2C(=O)Nc2ccc(N3CCN(C(C)C)CC3)cc2)cnc2c1NCC(C)O2` (centres unmarked) [Example 404, 4-((3,8-dimethyl-2,3-dihydro-1H-pyrido[2,3-b][1,4]oxazin-7-yl)amino)-N-(4-(4-isopropylpiperazin-1-yl)phenyl)-2-oxo-1,2-dihydropyridine-3-carboxamide], the IC50 is reported as at most 10 nM. `Cc1c(Nc2cc[nH]c(=O)c2C(=O)Nc2ccc(N3CCN(C(=O)C(C)C)CC3)cc2)cnc2c1NCCO2` [Example 315, N-(4-(4-Isobutyrylpiperazin-1-yl)phenyl)-4-((8-methyl-2,3-dihydro-1H-pyrido[2,3-b][1,4]oxazin-7-yl)amino)-2-oxo-1,2-dihydropyridine-3-carboxamide] gave an IC50 of at most 10 nM. Compound `Cc1c(Nc2cc[nH]c(=O)c2C(=O)Nc2ccc(N3CCN(CC4CCC(=O)N4)CC3)cc2)cnc2c1NCCO2` (centres unmarked) [Example 176, 4-((8-methyl-2,3-dihydro-1H-pyrido[2,3-b][1,4]oxazin-7-yl)amino)-2-oxo-N-(4-(4-((5-oxopyrrolidin-2-yl)methyl)piperazin-1-yl)phenyl)-1,2-dihydropyridine-3-carboxamide] has an IC50 of at most 10 nM. Work on `Cc1c(Nc2cc[nH]c(=O)c2C(=O)Nc2ccc3ncsc3c2)cnc2c1NCCO2` [Example 248, N-(benzo[d]thiazol-6-yl)-4-((8-methyl-2,3-dihydro-1H-pyrido[2,3-b][1,4]oxazin-7-yl)amino)-2-oxo-1,2-dihydropyridine-3-carboxamide] yielded an IC50 of 10 to 100 nM. `Cc1c(Nc2cc[nH]c(=O)c2C(=O)Nc2ccc(N3CCN(S(C)(=O)=O)CC3)cc2)cnc2c1NCCO2` [Example 262, 4-((8-methyl-2,3-dihydro-1H-pyrido[2,3-b][1,4]oxazin-7-yl)amino)-N-(4-(4-(methylsulfonyl)piperazin-1-yl)phenyl)-2-oxo-1,2-dihydropyridine-3-carboxamide] gave an IC50 of 10 to 100 nM. `Cc1c(Nc2cc[nH]c(=O)c2C(=O)Nc2ccc(N3CCN(C)CC3)c(CN(C)C)c2)cnc2c1NCCO2` [Example 227, N-(3-((dimethylamino)methyl)-4-(4-methylpiperazin-1-yl)phenyl)-4-((8-methyl-2,3-dihydro-1H-pyrido[2,3-b][1,4]oxazin-7-yl)amino)-2-oxo-1,2-dihydropyridine-3-carboxamide] showed an IC50 of at most 10 nM. With `Cc1c(Nc2cc[nH]c(=O)c2C(=O)Nc2ccc(N3CCN(C)CC3)cc2)cnc2c1NC(=O)CO2` [Example 126, 4-((8-methyl-2-oxo-2,3-dihydro-1H-pyrido[2,3-b][1,4]oxazin-7-yl)amino)-N-(4-(4-methylpiperazin-1-yl)phenyl)-2-oxo-1,2-dihydropyridine-3-carboxamide] the IC50 was 10 to 100 nM. For `Cc1c(Nc2cc[nH]c(=O)c2C(=O)Nc2ccc3c(c2)OCO3)cnc2c1NCCO2` [Example 244, N-(benzo[d][1,3]dioxol-5-yl)-4-((8-methyl-2,3-dihydro-1H-pyrido[2,3-b][1,4]oxazin-7-yl)amino)-2-oxo-1,2-dihydropyridine-3-carboxamide], the IC50 was 10 to 100 nM. Compound `Cc1c(Nc2cc[nH]c(=O)c2C(=O)Nc2ccc3c(c2)OCCO3)cnc2c1NCCO2` [Example 230, N-(2,3-dihydrobenzo[b][1,4]dioxin-6-yl)-4-((8-methyl-2,3-dihydro-1H-pyrido[2,3-b][1,4]oxazin-7-yl)amino)-2-oxo-1,2-dihydropyridine-3-carboxamide] has an IC50 of 10 to 100 nM. With `CCn1nc(C(F)(F)F)cc1-c1ccc(NC(=O)c2c(Nc3cnc4c(c3C)NCCO4)cc[nH]c2=O)cc1` [Example 265, N-(4-(1-ethyl-3-(trifluoromethyl)-1H-pyrazol-5-yl)phenyl)-4-((8-methyl-2,3-dihydro-1H-pyrido[2,3-b][1,4]oxazin-7-yl)amino)-2-oxo-1,2-dihydropyridine-3-carboxamide] the IC50 was 10 to 100 nM. `Cc1c(Nc2cc[nH]c(=O)c2C(=O)Nc2ccc(N3CCN(C(=O)C(C)C)[C@@H](C)C3)cc2)cnc2c1NCCO2` [Example 343, (S)-N-(4-(4-isobutyryl-3-methylpiperazin-1-yl)phenyl)-4-((8-methyl-2,3-dihydro-1H-pyrido[2,3-b][1,4]oxazin-7-yl)amino)-2-oxo-1,2-dihydropyridine-3-carboxamide] gave an IC50 of at most 10 nM. `Cc1c(Nc2cc[nH]c(=O)c2C(=O)Nc2ccc(N3CCN(C)CC3)c(C(=O)N(C)C)c2)cnc2c1NCCO2` [Example 208, N-(3-(dimethylcarbamoyl)-4-(4-methylpiperazin-1-yl)phenyl)-4-((8-methyl-2,3-dihydro-1H-pyrido[2,3-b][1,4]oxazin-7-yl)amino)-2-oxo-1,2-dihydropyridine-3-carboxamide] was tested, and the IC50 was 100 to 1000 nM. In the case of `Cc1cc(NS(C)(=O)=O)ccc1NC(=O)c1c(Nc2cnc3c(c2C)NCCO3)cc[nH]c1=O` [Example 217, 4-((8-methyl-2,3-dihydro-1H-pyrido[2,3-b][1,4]oxazin-7-yl)amino)-N-(2-methyl-4-(methylsulfonamido)phenyl)-2-oxo-1,2-dihydropyridine-3-carboxamide], the IC50 is reported as 100 to 1000 nM. `Cc1c(Nc2cc[nH]c(=O)c2C(=O)Nc2ccc(N3CCN(C)CC3)c(C(F)(F)F)c2)cnc2c1NCC(C)O2` (centres unmarked) [Example 196, 4-((3,8-dimethyl-2,3-dihydro-1H-pyrido[2,3-b][1,4]oxazin-7-yl)amino)-N-(4-(4-methylpiperazin-1-yl)-3-(trifluoromethyl)phenyl)-2-oxo-1,2-dihydropyridine-3-carboxamide] showed an IC50 of 10 to 100 nM. For `Cc1c(Nc2cc[nH]c(=O)c2C(=O)Nc2ccc(N3CCN(CC(C)O)CC3)cc2)cnc2c1NCCO2` (centres unmarked) [Example 170, N-(4-(4-(2-hydroxypropyl)piperazin-1-yl)phenyl)-4-((8-methyl-2,3-dihydro-1H-pyrido[2,3-b][1,4]oxazin-7-yl)amino)-2-oxo-1,2-dihydropyridine-3-carboxamide], the IC50 was at most 10 nM. With `Cc1c(Nc2cc[nH]c(=O)c2C(=O)Nc2ccc3[nH]ncc3c2)cnc2c1NCCO2` [Example 234, N-(1H-indazol-5-yl)-4-((8-methyl-2,3-dihydro-1H-pyrido[2,3-b][1,4]oxazin-7-yl)amino)-2-oxo-1,2-dihydropyridine-3-carboxamide] the IC50 was 10 to 100 nM. For `Cc1cc(N2CCN(C)CC2)ccc1NC(=O)c1c(Nc2cnc3c(c2C)NCCO3)cc[nH]c1=O` [Example 195, 4-((8-methyl-2,3-dihydro-1H-pyrido[2,3-b][1,4]oxazin-7-yl)amino)-N-(2-methyl-4-(4-methylpiperazin-1-yl)phenyl)-2-oxo-1,2-dihydropyridine-3-carboxamide], the IC50 was 100 to 1000 nM. Compound `Cc1c(Nc2cc[nH]c(=O)c2C(=O)Nc2ccc(N3CCN(C4COC4)CC3)c(F)c2)cnc2c1NCCO2` [Example 379, N-(3-fluoro-4-(4-(oxetan-3-yl)piperazin-1-yl)phenyl)-4-((8-methyl-2,3-dihydro-1H-pyrido[2,3-b][1,4]oxazin-7-yl)amino)-2-oxo-1,2-dihydropyridine-3-carboxamide] has an IC50 of at most 10 nM. Compound `Cc1c(Nc2cc[nH]c(=O)c2C(=O)Nc2ccc(C3CCOCC3)cc2)cnc2c1NCCO2` [Example 133, 4-((8-methyl-2,3-dihydro-1H-pyrido[2,3-b][1,4]oxazin-7-yl)amino)-2-oxo-N-(4-(tetrahydro-2H-pyran-4-yl)phenyl)-1,2-dihydropyridine-3-carboxamide] has an IC50 of 10 to 100 nM.
